Patent US10654845B2, “2-(het)aryl-substituted fused bicyclic heterocycle derivatives as pesticides” (BAYER CROPSCIENCE AKTIENGESELLSCHAFT, priority 2015, dated 2020)

Legend:
[1] = log P by HPLC on reversed-phase column (C18), EEC Directive 79/831 Annex V.A8
Description: Called log P (HCOOH) in the table.
Called log P (neutral) in the table.

Phaedon cochleariae = Phaedon cochleariae spray test; assay type: in vivo; details: after 7 days, beetle larvae killed; for pest or weed control at 500 g/ha: Phaedon cochleariae, 168 h, read-out: efficacy in %
Description: Phaedon cochleariae-Spray Test
Solvent: 78.0 parts by weight of acetone
(§1) • 1.5 parts by weight of dimethylformamide Emulsifier: alkylaryl polyglycol ether
(§2) To produce a suitable preparation of active compound, 1 part by weight of active compound is dissolved using the stated parts by weight of solvent and made up with water containing an emulsifier concentration of 1000 ppm until the desired concentration is attained. To produce further test concentrations, the preparation is diluted with emulsifier-containing water.
After 7 days, the efficacy in % is determined. 100% means that all the beetle larvae have been killed; 0% means that no beetle larvae have been killed.

Myzus persicae = Myzus persicae spray test (Chinese cabbage leaf discs); assay type: in vivo; details: after 6 days, aphids killed
Description: Myzus persicae Spray Test
Solvent: 78 parts by weight of acetone
as §1, §2
Discs of Chinese cabbage leaves (Brassica pekinensis) infested by all stages of the green peach aphid (Myzus persicae) are sprayed with an active compound preparation of the desired concentration.
After 6 days, the efficacy in % is determined. 100% means that all the aphids have been killed; 0% means that no aphids have been killed.

[2] = LC-MS acidic range, pH 2.7 (HCOOH), C18, 55° C.
[3] = LC-MS neutral range, pH 7.8, C18, 55° C.
[4] = reversed-phase HPLC column (C18), pH 2.7, logP-acidic, LC-MS acidic range, pH 2.7 (HCOOH), C18, 55° C.
[5] = reversed-phase HPLC column (C18), pH 7.8, log P (neutral), preparation examples, neutral range, pH 7.8
[6] = reversed-phase HPLC column (C18), pH 7.8, logP-neutral, LC-MS neutral range, pH 7.8, C18, 55° C.

logP-acidic ([1]; pH 2.7)	logP-neutral ([1]; pH 7.8)	chromatographic logP [1, 5]	Compound	further results
		2.61	CCS(=O)(=O)c1ccc(NC(=O)C(C)C)nc1-c1nc2cc(C(F)(F)F)ncc2n1C [Example 16, N-{5-(Ethylsulphonyl)-6-[3-methyl-6-(trifluoromethyl)-3H-imidazo[4,5-c]pyridin-2-yl]pyridin-2-yl}-2-methylpropanamide]	chromatographic logP [1, 4]: 2.63; chromatographic logP [1, 6]: 2.61; pest or weed control at 500 g/ha (Phaedon cochleariae; 500 g/ha): 100%; pest or weed control at 500 g/ha (Myzus persicae; Myzus persicae, foliar, 144 h, 500 g/ha, read-out: efficacy in %): 100%
		2.3	CCS(=O)(=O)c1ccc(F)nc1-c1nc2cc(C(F)(F)F)ncc2n1C [Ex. XIII-2, 2-[3-(Ethylsulphonyl)-6-fluoropyridin-2-yl]-3-methyl-6-(trifluoromethyl)-3H-imidazo[4,5-c]pyridine]	
2.54	2.47		CCS(=O)(=O)c1ccc(S(=O)(=O)N(C)C)nc1-c1nc2cc(C(F)(F)F)ncc2n1C [Example 50]	
		1.79	CCS(=N)(=O)c1ccc(S(=O)(=O)CC)c(-c2nc3cc(C(F)(F)F)ncc3n2C)n1 (centres unmarked) [Example 41, 2-[6-(S-Ethylsulphonimidoyl)-3-(ethylsulphonyl)pyridin-2-yl]-3-methyl-6-(trifluoromethyl)-3H-imidazo[4,5-c]pyridine]	chromatographic logP [1, 4]: 1.78; chromatographic logP [1, 6]: 1.79
2.36	2.30		CCNS(=O)(=O)c1ccc(S(=O)(=O)CC)c(-c2nc3cc(C(F)(F)F)ncc3n2C)n1 [Example 48]	
		2.49	CCS(=O)(=O)c1ccc(S(=O)(=O)NC(C)C)nc1-c1nc2cc(C(F)(F)F)ncc2n1C [Example 49, 5-(Ethylsulphonyl)-N-isopropyl-6-[3-methyl-6-(trifluoromethyl)-3H-imidazo[4,5-c]pyridin-2-yl]pyridine-2-sulphonamide]	chromatographic logP [1, 4]: 2.56; chromatographic logP [1, 6]: 2.49
		2.27	CCS(=O)(=O)c1ccc(S(=O)(=O)CC)c(-c2nc3cc(C(F)(F)F)ncc3n2C)n1 [Example 15, 2-[3,6-Bis(ethylsulphonyl)pyridin-2-yl]-3-methyl-6-(trifluoromethyl)-3H-imidazo[4,5-c]pyridine]	chromatographic logP [1, 4]: 2.31; chromatographic logP [1, 6]: 2.28; pest or weed control at 500 g/ha (Phaedon cochleariae; 500 g/ha): 100%
2.15	2.08		CCS(=O)(=O)c1ccc(S(=O)(=O)NC)nc1-c1nc2cc(C(F)(F)F)ncc2n1C [Example 47]	
2.08	2.08		CCS(=O)(=O)c1ccc(S(C)(=O)=O)nc1-c1nc2cc(C(F)(F)F)ncc2n1C [Example 45]	
2.08	0.90		CCS(=O)(=O)Nc1ccc(S(=O)(=O)CC)c(-c2nc3cc(C(F)(F)F)ncc3n2C)n1 [Example 59]	efficacy in % (Myzus persicae; 100 g/ha): 100%
		0.85	CCS(=O)(=O)c1ccc(NS(C)(=O)=O)nc1-c1nc2cc(C(F)(F)F)ncc2n1C [Example 26, N-{5-(Ethylsulphonyl)-6-[3-methyl-6-(trifluoromethyl)-3H-imidazo[4,5-c]pyridin-2-yl]pyridin-2-yl}methanesulphonamide]	chromatographic logP [1, 4]: 1.92; chromatographic logP [1, 6]: 0.85; pest or weed control at 500 g/ha (Phaedon cochleariae; 500 g/ha): 100%

The next lines start with the molecule.

Compound	logP-acidic ([1]; pH 2.7)	logP-neutral ([1]; pH 7.8)	chromatographic logP [1, 5]	further results
CCS(=O)(=O)c1ccc(NC(=O)CS(C)(=O)=O)nc1-c1nc2cc(C(F)(F)F)ncc2n1C [Example 72]	1.87	1.92		efficacy in % (Phaedon cochleariae; 500 g/ha): 100%; efficacy in % (Myzus persicae; 500 g/ha): 100%
CCS(=O)(=O)c1ccc(N(C)C(C)=O)nc1-c1nc2cc(C(F)(F)F)ncc2n1C [Example 69]				logP-acidic [1, 2]: 2.11; logP-neutral [1, 3]: 2.10; efficacy in % (Phaedon cochleariae; 500 g/ha): 100%; efficacy in % (Myzus persicae; 500 g/ha): 90%
Cn1c(-c2nc(F)ccc2F)nc2cc(C(F)(F)F)ncc21 [Ex. IX-2, 2-(3,6-Difluoropyridin-2-yl)-3-methyl-6-(trifluoromethyl)-3H-imidazo[4,5-c]pyridine]			2.11	
CCCOc1ccc(S(=O)(=O)CC)c(-c2nc3cc(C(F)(F)F)ncc3n2C)n1 [Example 51]	3.37	3.36		efficacy in % (Phaedon cochleariae; 500 g/ha): 100%
CCS(=O)(=O)c1ccc(C(=O)OC)nc1-c1nc2cc(C(F)(F)F)ncc2n1C [Example 12, Methyl 5-(ethylsulphonyl)-6-[3-methyl-6-(trifluoromethyl)-3H-imidazo[4,5-c]pyridin-2-yl]pyridine-2-carboxylate]			2.17	chromatographic logP [1, 4]: 2.17; chromatographic logP [1, 6]: 2.17
CCS(=O)(=O)c1ccc(NC(=O)Cc2ccccc2)nc1-c1nc2cc(C(F)(F)F)ncc2n1C [Example 68]				efficacy in % (Phaedon cochleariae; 500 g/ha): 100%
CCS(=O)(=O)c1ccc(SCc2ccccc2)nc1-c1nc2cc(C(F)(F)F)ncc2n1C [Example 30, 2-[6-(Benzylsulphanyl)-3-(ethylsulphonyl)pyridin-2-yl]-3-methyl-6-(trifluoromethyl)-3H-imidazo[4,5-c]pyridine]				chromatographic logP ([1]; pH 2.7): 3.81; chromatographic logP ([1]; pH 7.8): 3.72
CCS(=O)(=O)c1ccc([S+]([O-])Cc2ccccc2)nc1-c1nc2cc(C(F)(F)F)ncc2n1C (centres unmarked) [Example 39]	2.66	2.66		
CCSc1ccc(NC(=O)C(F)(F)F)nc1-c1nc2cc(C(F)(F)F)ncc2n1C [Example 6]	3.18			efficacy in % (Phaedon cochleariae; 500 g/ha): 100%
CCS(=O)(=O)c1ccc(Sc2ccccc2)nc1-c1nc2cc(C(F)(F)F)ncc2n1C [Example 42]				logP-acidic [1, 2]: 3.68; logP-neutral [1, 3]: 3.64
CCNC(=S)c1ccc(S(=O)(=O)CC)c(-c2nc3cc(C(F)(F)F)ncc3n2C)n1 [Example 35]	3.17	3.14		
CCS(=O)(=O)c1ccc(C(=O)O)nc1-c1nc2cc(C(F)(F)F)ncc2n1C [5-(Ethylsulphonyl)-6-[3-methyl-6-(trifluoromethyl)-3H-imidazo[4,5-c]pyridin-2-yl]pyridine-2-carboxylic acid]			0.76	
CCS(=O)(=O)c1ccc(NC(=O)c2cccnc2)nc1-c1nc2cc(C(F)(F)F)ncc2n1C [Example 54]	2.08	2.12		efficacy in % (Phaedon cochleariae; 500 g/ha): 100%
CCS(=O)(=O)c1ccc(N(S(C)(=O)=O)S(C)(=O)=O)nc1-c1nc2cc(C(F)(F)F)ncc2n1C [Example 25]	2.47			
CCSc1ccc(S(=O)(=O)CC)c(-c2nc3cc(C(F)(F)F)ncc3n2C)n1 [Example 5, 2-[6-(Ethylsulphanyl)-3-(ethylsulphonyl)pyridin-2-yl]-3-methyl-6-(trifluoromethyl)-3H-imidazo[4,5-c]pyridine]			3.14	chromatographic logP [1, 4]: 3.19; chromatographic logP [1, 6]: 3.14
CCS(=O)(=O)c1ccc([S+](C)[O-])nc1-c1nc2cc(C(F)(F)F)ncc2n1C (centres unmarked) [Example 44]				efficacy in % (Myzus persicae; 500 g/ha): 90%
CCS(=O)(=O)c1ccc(NC(=O)c2ccc(Cl)cc2)nc1-c1nc2cc(C(F)(F)F)ncc2n1C [Example 73]	3.37	3.37		efficacy in % (Phaedon cochleariae; 100 g/ha): 100%
CCS(=O)(=O)c1ccc(SC)nc1-c1nc2cc(C(F)(F)F)ncc2n1C [Example 28, 2-[3-(Ethylsulphonyl)-6-(methylsulphanyl)pyridin-2-yl]-3-methyl-6-(trifluoromethyl)-3H-imidazo[4,5-c]pyridine]			2.75	chromatographic logP [1, 4]: 2.81; chromatographic logP [1, 6]: 2.75
CCS(=O)(=O)c1ccc(Oc2cc(C(F)(F)F)n[nH]2)nc1-c1nc2cc(C(F)(F)F)ncc2n1C [Example 17]	2.77	2.69		
CCS(=O)(=O)c1ccc(NC(C)=O)nc1-c1nc2cc(C(F)(F)F)ncc2n1C [N-[5-Ethylsulphonyl-6-[3-methyl-6-(trifluoromethyl)imidazo[4,5-c]pyridin-2-yl]-2-pyridyl]acetamide]			2.01	
CCS(=O)(=O)c1ccc(C(N)=O)nc1-c1nc2cc(C(F)(F)F)ncc2n1C [Example 46]				logP-acidic [1, 2]: 1.78; logP-neutral [1, 3]: 1.68; efficacy in % (Phaedon cochleariae; 500 g/ha): 100%
CCSc1ccc(NC(=O)CC)nc1-c1nc2cc(C(F)(F)F)ncc2n1C [Example 27]	2.73	2.62		efficacy in % (Phaedon cochleariae; 500 g/ha): 100%
CCSc1ccc(F)nc1-c1nc2cc(C(F)(F)F)ncc2n1C [Ex. XI-2, 2-[3-(Ethylsulphanyl)-6-fluoropyridin-2-yl]-3-methyl-6-(trifluoromethyl)-3H-imidazo[4,5-c]pyridine]			2.73	
CCSc1ccc(NC(=O)c2ccccc2)nc1-c1nc2cc(C(F)(F)F)ncc2n1C [Example 19]	3.36			
CCSc1ccc(NC(=O)C2CC2)nc1-c1nc2cc(C(F)(F)F)ncc2n1C [Example 1]	2.80	2.79		efficacy in % (Phaedon cochleariae; 500 g/ha): 100%
CCNC(=O)c1ccc(S(=O)(=O)CC)c(-c2nc3cc(C(F)(F)F)ncc3n2C)n1 [Example 32]	2.29	2.22		efficacy in % (Phaedon cochleariae; 500 g/ha): 100%
